As usually defined, the Tmax is the time from dosing to the highest level. A word on the AUC(0-inf): it is total exposure, with the tail of the curve extrapolated. The Cmax is the maximum level reached in the sampled fluid or tissue. The half-life is the time needed for the level to fall by half in the phase considered. High values mean slow decline, low ones rapid decline.

The nature of data set [1]: Irinotecan and metabolites plasma pharmacokinetics (LC-MS/MS, noncompartmental). As for the experimental part: (§1) Berzosertib plasma protein binding was assessed in vitro using rapid equilibrium dialysis (RED) devices (Thermo Fisher Scientific, Waltham, Massachusetts).
(§2) Plasma pharmacokinetic parameters were derived from the data by noncompartmental methods with WinNonlin (Certara). Statistical analyses for pharmacokinetic parameter values were performed using SPSS 27.0 for Windows (SPSS Inc, Chicago, Illinois).

A further data set can be described thus: clinical. The note with it: human, in vivo. As for the experimental part: as §1, §2
The subject of a further data set is p-Chk1. The note with it: reported value, no reference given; cited from earlier work.
On the set-up of data set [2]: method as in PMID 32568634. The note with it: highest dose level 240 mg/m^2 once or twice weekly; cited from earlier work.
The nature of data set [3]: Berzosertib plasma protein binding in vitro, rapid equilibrium dialysis. The note with it: human plasma, 300 – 100,000 µg/L tested. In kind it is in vitro ADME.
Data set [4] relates to patients with advanced solid tumors. Kind of data set: Phase 1 safety of berzosertib plus irinotecan: treatment-related adverse events (CTCAE v5.0), DLT, MTD/RP2D. In kind it is in vivo. As for the experimental part: Berzosertib was supplied under a Collaborative Research and Development Agreement among NCI, Vertex Pharmaceuticals, and EMD Serono. Irinotecan was obtained from commercial sources.
Treatment cycles were 28 days long (Supporting Information S1: Figure S1).
A history and physical examination were conducted at baseline and before each cycle. Complete blood counts and serum chemistries were performed at baseline and weekly during C1 and every 2 weeks thereafter. Toxicities were graded using NCI Common Terminology Criteria for Adverse Events (version 5.0) and defined as adverse events that were possibly, probably, or definitely related to treatment. Radiographic evaluation was performed at baseline and every 8 weeks for tumor response based on Response Evaluation Criteria in Solid Tumors (RECIST) version 1.1.
DLs were evaluated using a modified Storer’s up and down design with the plan of enrolling up to 36 evaluable patients during dose escalation (Supporting Information S1: Figure S1).[8] Stage I of the Modified Storer’s up and down design is single patient dose escalation until a DLT is observed. Once a DLT is observed, patients are treated in cohorts of five in stage II of the design. The MTD was defined as the highest DL tested at which ≤20% patients experience dose limiting toxicity (DLT) during C1 of therapy.

Data set [5] has as its system γH2AX, pS343-NBS1, and pS824-KAP1. Briefly: Tumor DNA damage signaling, multiplex immunofluorescence of paired biopsies. In kind it is in vivo, human. The note with it: 18–22 hours after end of irinotecan infusion (C1D-13), one colon cancer patient; 4% is the assay baseline. The source says:
Paired tumor biopsies were collected from patients enrolled in the expansion cohort. […] The staining of FFPE tissue sections used the BOND RX autostainer (Leica Biosystems). For γH2AX and […]-NBS1 analysis, biotin-conjugated γH2AX (clone JBW301; EMD Millipore) and a custom-conjugated […]-NBS1-DIG (clone EP178; Abcam) antibodies were detected with the use of streptavidin labeled with Alexa Fluor 488 and Alexa Fluor 647 custom-conjugated IgG Fraction Monoclonal Mouse Anti-Digoxin antibody, respectively. For […]-KAP1 analysis, anti-[…]-KAP1 antibody (clone EPR5248; Abcam) custom conjugated to dinitrophenol (Molecular Probes, Inc) was detected using Alexa Fluor 488 conjugated anti-dinitrophenyl KLH rabbit polyclonal antibody. In addition, β-catenin antibody custom conjugated to Alexa Fluor 546 was used to define tumor areas in all biomarker analyses. For γH2AX and […]-NBS1 analysis, fluorescent whole slide images were acquired at 20× using Leica's Aperio FL scanner. Images were then analyzed using a custom algorithm build in Definiens Tissue Studio Analysis software (formerly Definiens AG). For […]-KAP1 analysis, whole slide fluorescent images were acquired at 20× using ZEISS Axioscan 7 scanner. Images were analyzed using a custom algorithm in HALO software (Indica Labs).

Data set [6] deals with ATM and H2AX phosphorylation in PBMCs. Briefly: PBMC DNA damage signaling, quasi-quantitative dual multiplexed immunoblot. In kind it is in vivo, human. As to the method:
Blood was processed and analysis performed as described.[11]–[13]
(In general: Immunoblotting shows a protein as a band on a membrane.)

Setting [7] is: D15, irinotecan 180/150 mg/m^2 with berzosertib (N=41), geometric mean (SD).
Setting [8] is: D-14, irinotecan 180 mg/m^2 alone (N=55), geometric mean (SD).
The mark [9] stands for this setting: N=39, with/without berzosertib, geometric mean (SD).
The mark [10] stands for this setting: irinotecan 180 mg/m^2 (N=55), D-14 (alone), geometric mean (SD).

As for `CCc1c2c(nc3ccc(OC(=O)N4CCC(NCCCCC(=O)O)CC4)cc13)-c1cc3c(c(=O)n1C2)COC(=O)[C@]3(O)CC` [APC], the figures for the “APC/ IRI AUC Ratio” value in data set [1] (setting [7]) and in data set [1] (setting [8]) were 0.221 (1.96) and 0.196 (1.80), respectively. Also, the “APC/ IRI AUC Ratio, D15/D-14” value in data set [1] (setting [9]) is reported as 1.09 (1.50). Moreover, in data set [1] (human, in vivo, 180 mg/m2), the “APC AUC0-inf” value is on record as 2.74 (1.92) mg/L•h. In addition, the “APC Cmax” value in data set [1] (human, in vivo, 180 mg/m2) is given as 201 (1.81) µg/L. In addition, the “APC t½” value in data set [1] (irinotecan 180 mg/m^2 (N=55), day -14 of cycle 1, geometric mean (SD)) is 12.1 (1.3) h.

Take `CCc1c2c(nc3ccc(O)cc13)-c1cc3c(c(=O)n1C2)COC(=O)[C@]3(O)CC` [SN38]: the “SN38/ IRI AUC Ratio” value in data set [1] (setting [7]) is 0.0282 (1.70). The “SN38/ IRI AUC Ratio” value in data set [1] (setting [8]) is 0.0268 (1.56). Moreover, the “SN38/ IRI AUC Ratio, D15/D-14” value in data set [1] (setting [9]) is recorded as 1.07 (1.48). Moreover, in data set [1] (bioequivalence approach), the “90% CI of the AUC ratio (presence/absence of berzosertib)” value was “fell within the traditional boundaries of 80%–125%”. For the same molecule, in data set [1] (bioequivalence assessment, lower 90% confidence interval), the “SN38 AUC ratio D15/D-14, L-90%CI” value is given as 93.6%. Besides, the “SN38 AUC ratio D15/D-14, Average BE” value in data set [1] (bioequivalence assessment, presence/absence of berzosertib) was 106.6%. The “SN38 AUC ratio D15/D-14, U-90%CI” value in data set [1] (bioequivalence assessment, upper 90% confidence interval) is 121.5%. In data set [1] (setting [10]), the “SN38 AUC0-inf” value is reported as 0.38 (1.8) mg/L•h, the “SN38 Cmax” value is 25.0 (1.78) µg/L and the “SN38 t½” value is reported as 19.9 (1.3) h. In data set [1] (presence/absence of berzosertib, dose-normalized AUC, geometric mean (SD)), the “SN38 AUC Ratio D15/D-14” value is listed as 1.07 (1.7).

Regarding `CNCc1ccc(-c2cc(-c3nc(-c4ccc(S(=O)(=O)C(C)C)cc4)cnc3N)on2)cc1` [berzosertib], in “clinical”, the Cl was 24.3 (1.30) L/h/m^2, the Cmax/Dose is reported as 4.90 (1.45) µg/L / mg/m^2, the time to peak (Tmax) is 0.61 h and the Vss is recorded as 530 (1.30) L/m^2. The Vz in the data set “clinical” was 612 (1.31) L/m^2. In “clinical” (60 mg/m2), the AUC(0-inf) came out at 2330 ng·h/mL, the Cl is 25.7 (-) L/h/m^2, the maximum concentration (Cmax) is 343 ng/mL and the Cmax/Dose is listed as 5.72 (-) µg/L / mg/m^2. In the data set “clinical” (60 mg/m2), the time to peak (Tmax) was 0.45 h, the Vss was 459 (-) L/m^2 and the half-life is 14.4 h. In addition, in the data set “clinical” (120 mg/m2), the area under the curve AUC(0-inf) came to 4190 ng·h/mL, the Cl was 28.7 (1.40) L/h/m^2, the Cmax stood at 535 ng/mL and the Tmax stood at 0.54 h. In the data set “clinical” (120 mg/m2), this molecule showed a half-life of 14.1 h. Also, in the data set “clinical” (180 mg/m2), the area under the curve AUC(0-inf) came to 8550 ng·h/mL, the Cl is recorded as 21.1 (1.20) L/h/m^2, the Cmax is 1060 ng/mL and the Cmax/Dose is on record as 5.92 (1.44) µg/L / mg/m^2. In “clinical” (180 mg/m2), the time to peak (Tmax) turned out to be 0.66 h, the Vss is 422 (1.37) L/m^2 and the half-life was 16.1 h. Moreover, in “clinical” (270 mg/m2), the AUC(0-inf) was determined as 11000 ng·h/mL, the Cl is listed as 24.6 (1.30) L/h/m^2, the maximum concentration (Cmax) was 1260 ng/mL and the Cmax/Dose is given as 4.67 (1.46) µg/L / mg/m^2. In “clinical” (270 mg/m2), the time of peak concentration (Tmax) is 0.61 h, the Vss is given as 578 (1.24) L/m^2 and the half-life is 18.8 h. Moreover, in “clinical” (iv), the half-life is roughly 17 h, the total clearance is listed as 24 L/h/m^2 and the volume of distribution result is “approximately 530 L/m^2”. For the same molecule, the “human equivalent p-Chk1 IC50” value with p-Chk1 was “approximately 110 ng/mL”. For the same molecule, the “dose-limiting toxicities, monotherapy” value in data set [2] is “no dose-limiting toxicities”. In data set [3], the “concentration from which the free fraction increased (plasma protein binding)” value is given as “approximately 30 μg/mL”. In data set [4] (human, in vivo), the “berzosertib exposure (AUC) versus cycle 1 toxicity grade” value was “higher in patients with C1 higher any grade toxicity and higher hematologic grade toxicity”. In addition, in data set [4] (with irinotecan 180 mg/m^2, iv every 2 weeks (DL4)), the “MTD and RP2D, berzosertib dose” value worked out at 270 mg/m^2.

For the molecule `CCc1c2c(nc3ccc(OC(=O)N4CCC(N5CCCCC5)CC4)cc13)-c1cc3c(c(=O)n1C2)COC(=O)[C@]3(O)CC` [irinotecan], the “γH2AX and pNBS1 in tumor biopsy” value in data set [5] is reported as > 4 % nuclear area positive (NAP). In data set [1] (human, in vivo, 180 mg/m2), this molecule registered an area under the curve AUC(0-inf) of 14000 ng·h/mL and a maximum concentration (Cmax) of 2180 ng/mL. In addition, in data set [6] (4 hours 30 minutes, returned to baseline by 24 hours), the “induction of H2AX phosphorylation in PBMCs” value is on record as 10 fold. For the same molecule, in data set [6] (irinotecan alone (C1D-14)), the “induction of ATM in PBMCs” value is reported as “no induction of ATM”. Also, the “MTD and RP2D, irinotecan dose” value in data set [4] (with berzosertib 270 mg/m^2, iv every 2 weeks (DL4)) stood at 180 mg/m^2.

The record behind these values is PMC12952245 (Cancer, 2025).
